The text below walks through data of publication PMC6264176, “Cholesterol-Lowering Activity of the Major Polyphenols in Grape Seed” (Molecules, 2011).

The target in this experiment is T1, pancreatic cholesterol esterase (Sus scrofa, UniProt A0A286ZKB1).
T1 construct: gene CEL
T1 sequence (A0A286ZKB1 96-682): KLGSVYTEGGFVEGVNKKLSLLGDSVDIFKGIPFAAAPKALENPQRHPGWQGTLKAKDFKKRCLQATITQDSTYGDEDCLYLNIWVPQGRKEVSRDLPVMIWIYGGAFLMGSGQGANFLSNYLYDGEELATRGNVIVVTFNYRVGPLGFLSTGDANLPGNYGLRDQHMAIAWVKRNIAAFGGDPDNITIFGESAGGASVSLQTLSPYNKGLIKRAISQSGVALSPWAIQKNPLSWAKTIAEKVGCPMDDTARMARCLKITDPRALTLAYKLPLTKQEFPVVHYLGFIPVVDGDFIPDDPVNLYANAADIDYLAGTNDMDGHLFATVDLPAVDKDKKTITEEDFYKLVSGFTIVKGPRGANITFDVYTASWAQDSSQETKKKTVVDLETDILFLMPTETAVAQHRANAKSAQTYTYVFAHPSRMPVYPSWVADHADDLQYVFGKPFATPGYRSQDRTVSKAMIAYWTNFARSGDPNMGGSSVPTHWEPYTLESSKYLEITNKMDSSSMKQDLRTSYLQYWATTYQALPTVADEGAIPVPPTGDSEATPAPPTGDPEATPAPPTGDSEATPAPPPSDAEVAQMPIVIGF
Kind of experiment: p-NPB hydrolysis by porcine pancreatic cholesterol esterase, absorbance at […] nm, with taurocholic acid. It is filed as biochemical.

A value given as a limit tells only on which side of the number the result lay.

In the case of `Oc1cc(O)c2c(c1)OC(c1ccc(O)c(O)c1)C(O)C2` (single isomer, unassigned; (+)) [(+)-Catechin], the IC50 is over 345 µM.

In turn, `Oc1cc(O)c2c(c1)O[C@H](c1ccc(O)c(O)c1)[C@H](O)C2` [(–)-epicatechin] showed an IC50 of over 345 µM.

For the compound `O=C(O)c1cc(O)c(O)c(O)c1` [gallic acid], the IC50 is over 588 µM.
